# In patent US10266544B2, “Aryl substituted aminomethyl spectinomycin analogs as antibacterial agents” (ST. JUDE CHILDREN'S RESEARCH HOSPITAL, INC., priority 2013, dated 2019):
# Where a name gives a salt, the structure may show the parent alone.
# Tested on: live vaccine strain (LVS) of Francisella tularensis
# Assay: microbe, parasite or virus in culture
# Format: cell-based
# Conditions: introduction of the methyl-linked phenyl ring
compound,measurement,value
"CN[C@@H]1[C@H](O)[C@H](NC)[C@H]2O[C@]3(O)[C@H](O[C@@H]2[C@H]1O)O[C@H](C)C[C@@]3(O)CNCc1ccccc1 [compound 1, 3′-(R)-3′-(benzylaminomethyl)dihydrospectinomycin Trihydrochloride]",activity against Francisella tularensis LVS,well tolerated
